According to patent publication US10189809B2, “SGC stimulators” (Ironwood Pharmaceuticals, Inc., priority 2010, dated 2019):

Experiments:
[1] = biological target: T1, Human soluble guanylate cyclase enzyme (hsGC) (Homo sapiens (Human), UniProt Q02108+Q02153); assay: Purified human sGC enzyme activity assay; format: biochemical; conditions: without the addition of SNP; for sGC Enzyme (fold increase at 30 μM): 30 μM compound
Summary of the method: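 Purified human sGC (5 ng) incubated 30 min at 37° C with compound at 10 or 30 μM final in pH 8.0 Tris with 300 μM GTP, 2 mM MgCl2, 2 mM DTT and 1 mM IBMX, then stopped with cold methanol. cGMP quantified against a standard curve. Specific activity (nmol cGMP/mg sGC/min) expressed as fold-change over DMSO control.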

[2] = system: Thoracic aortic rings; assay: Alternative thoracic aortic rings assay (Example 19b; resting tension as 100% inhibition); parameters: species or system rat; conditions: Table 10A; for Percent Relaxation at 1 μM: printed as number or words instead of code; for inhibition at 3 µM / inhibition at 10 µM / inhibition at 1 µM / EC50: Rattus norvegicus; for inhibition at 3 µM: read-out: Percent Relaxation at 3 μM; for inhibition at 10 µM: read-out: Percent Relaxation at 10 μM; for inhibition at 1 µM: read-out: Percent Relaxation at 1 μM; for EC50: read-out: Aortic Ring EC50
Summary of the method: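 Aortic rings (~2 mm) from male Sprague-Dawley rats (275-299 g) held at 1.0 g resting tension in Krebs-Henseleit at 37 °C under 95% O2/5% CO2, then precontracted with 100 ng/mL phenylephrine. Compounds in DMSO added cumulatively; relaxation recorded by force transducer and EC50 taken from concentration-response curves.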

[3] = biological target: soluble guanylate cyclase (sGC) (Homo sapiens (Human), UniProt Q02108+Q02153); assay: sGC-HEK-cGMP assay run with SNP incubation (HEK WC assay); format: cell-based; conditions: for Emax at 10 µM: read-out: HEK WC Assay (% Emax at 10 μM/with 10 uM SNP); for Emax at 30 µM: read-out: HEK WC Assay (% Emax at 30 μM/with 10 uM SNP)
Summary of the method: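 HEK293 cells with endogenous sGC were pretreated with 0.5 mM IBMX for 15 min at 37 °C, then exposed to test compound plus sodium nitroprusside for 10 min at 37 °C.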

[4] = biological target: T1, Human soluble guanylate cyclase enzyme (hsGC); assay: Purified human sGC enzyme synergy assay in the presence of 1 μM sodium nitroprusside (SNP); format: biochemical; conditions: 30 μM compound, with the addition of SNP
Summary of the method: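 Purified human sGC (5 ng) incubated 30 min at 37 °C with compounds at 10 or 30 μM, 1 μM sodium nitroprusside, 300 μM GTP and 1 mM IBMX in Tris pH 8.0 with MgCl2/DTT. cGMP quantified against a standard curve, and specific activity expressed as fold-change over DMSO control.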

T1 sequence (Q02153 whole entry): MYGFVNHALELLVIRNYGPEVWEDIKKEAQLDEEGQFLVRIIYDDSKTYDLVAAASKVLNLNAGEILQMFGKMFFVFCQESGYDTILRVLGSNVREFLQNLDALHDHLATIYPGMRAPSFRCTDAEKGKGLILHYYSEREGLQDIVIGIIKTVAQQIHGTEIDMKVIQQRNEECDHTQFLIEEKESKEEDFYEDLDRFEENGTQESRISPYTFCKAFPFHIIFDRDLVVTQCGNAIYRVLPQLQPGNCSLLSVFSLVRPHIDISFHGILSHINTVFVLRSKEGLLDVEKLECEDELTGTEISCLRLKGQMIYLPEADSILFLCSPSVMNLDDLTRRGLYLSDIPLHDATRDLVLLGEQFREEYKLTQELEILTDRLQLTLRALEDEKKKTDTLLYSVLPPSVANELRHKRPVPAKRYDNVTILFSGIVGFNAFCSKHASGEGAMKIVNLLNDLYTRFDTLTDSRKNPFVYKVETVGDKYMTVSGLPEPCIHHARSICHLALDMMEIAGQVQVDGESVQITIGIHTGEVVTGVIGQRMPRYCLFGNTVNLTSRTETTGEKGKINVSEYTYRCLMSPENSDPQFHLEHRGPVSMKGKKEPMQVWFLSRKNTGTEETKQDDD
T1 sequence (Q02108 whole entry): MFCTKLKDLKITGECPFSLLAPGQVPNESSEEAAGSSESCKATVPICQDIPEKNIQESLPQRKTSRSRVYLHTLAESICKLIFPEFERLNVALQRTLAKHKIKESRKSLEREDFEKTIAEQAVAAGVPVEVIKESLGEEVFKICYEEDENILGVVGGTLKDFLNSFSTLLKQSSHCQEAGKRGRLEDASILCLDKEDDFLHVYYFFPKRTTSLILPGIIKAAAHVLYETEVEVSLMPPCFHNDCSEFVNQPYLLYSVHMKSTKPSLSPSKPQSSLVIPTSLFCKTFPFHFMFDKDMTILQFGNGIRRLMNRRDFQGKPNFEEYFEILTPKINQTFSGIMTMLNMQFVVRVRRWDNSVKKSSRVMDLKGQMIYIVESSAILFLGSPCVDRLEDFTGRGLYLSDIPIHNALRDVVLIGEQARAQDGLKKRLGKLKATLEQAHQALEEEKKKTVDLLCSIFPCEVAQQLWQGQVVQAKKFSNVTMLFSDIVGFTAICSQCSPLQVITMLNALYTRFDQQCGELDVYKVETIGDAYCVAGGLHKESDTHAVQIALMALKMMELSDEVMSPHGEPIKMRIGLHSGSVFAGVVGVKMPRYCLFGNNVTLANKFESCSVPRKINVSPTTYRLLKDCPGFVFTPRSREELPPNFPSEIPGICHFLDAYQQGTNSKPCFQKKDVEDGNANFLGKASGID
Chain of soluble guanylate cyclase (sGC) (Q02153 whole entry): as the sequence (Q02153 whole entry) above
Chain of soluble guanylate cyclase (sGC) (Q02108 whole entry): as the sequence (Q02108 whole entry) above

sGC Enzyme (fold increase at 30 μM) [1]	Emax at 10 µM [3] [%]	Emax at 30 µM [3] [%]	sGC Enzyme (fold increase at 30 μM with SNP) [4]	sGC Enzyme (fold increase at 10 μM) ([1]; 10 μM compound)	EC50 [2] [nM]	SMILES	Percent Relaxation at 1 μM [2]	inhibition at 3 µM [2] [%]	inhibition at 10 µM [2] [%]	inhibition at 1 µM [2] [%]
C (C = 5 to <10 fold increase)	10 to 20	10 to 20	D (D = 10 to <30 fold increase)	–	–	COC(=O)Nc1c(N)nc(-c2cc(-c3ccsc3)n(Cc3ccccc3F)n2)nc1N [Compound I-71]	No relaxation	10 to 20	60 to 80	–
D (D = 10 to <30 fold increase)	20 to 40	20 to 40	D (D = 10 to <30 fold increase)	–	–	COC(=O)N(C)c1c(N)nc(-c2cc(-c3ccsc3)n(Cc3ccccc3F)n2)nc1N [Compound I-72]	3.1	20 to 40	60 to 80	–
B (B = 2 to <5 fold increase)	10 to 20	20 to 40	D (D = 10 to <30 fold increase)	A (A = no increase to <2 fold increase)	2000 to 4000	Fc1ccccc1Cn1nc(-c2ncccn2)cc1-c1ccccn1 [Compound I-75]	–	20 to 40	60 to 80	10 to 20
C (C = 5 to <10 fold increase)	10 to 20	10 to 20	C (C = 5 to <10 fold increase)	–	4000 to 8000	Nc1ccnc(-c2cc(-c3ccccc3)n(Cc3ccccc3F)n2)n1 [Compound I-82]	–	20 to 40	80 to 100	10 to 20
C (C = 5 to <10 fold increase)	–	100 to 120	D (D = 10 to <30 fold increase)	–	< 2000	Fc1ccccc1Cn1nc(-c2ncccn2)cc1-c1cscn1 [Compound I-85]	–	80 to 100	100 to 120	60 to 80
C (C = 5 to <10 fold increase)	40 to 60	60 to 80	D (D = 10 to <30 fold increase)	–	< 2000	Nc1ccnc(-c2cc(-c3nccs3)n(Cc3ccccc3F)n2)n1 [Compound I-86]	–	80 to 100	100 to 120	40 to 60
D (D = 10 to <30 fold increase)	60 to 80	100 to 120	D (D = 10 to <30 fold increase)	–	< 2000	Nc1ccnc(-c2cc(-c3ncco3)n(Cc3ccccc3F)n2)n1 [Compound I-87]	–	80 to 100	100 to 120	60 to 80
B (B = 2 to <5 fold increase)	20 to 40	20 to 40	D (D = 10 to <30 fold increase)	–	< 2000	Nc1ccnc(-c2cc(-c3cscn3)n(Cc3ccccc3F)n2)n1 [Compound I-92]	–	80 to 100	–	60 to 80
D (D = 10 to <30 fold increase)	40 to 60	40 to 60	D (D = 10 to <30 fold increase)	–	< 2000	Nc1ccnc(-c2cc(-c3ccon3)n(Cc3ccccc3F)n2)n1 [Compound I-97]	–	100 to 120	100 to 120	80 to 100
B (B = 2 to <5 fold increase)	20 to 40	20 to 40	D (D = 10 to <30 fold increase)	–	< 2000	Nc1ccnc(-c2cc(-c3cocn3)n(Cc3ccccc3F)n2)n1 [Compound I-98]	–	100 to 120	100 to 120	60 to 80
B (B = 2 to <5 fold increase)	20 to 40	40 to 60	C (C = 5 to <10 fold increase)	–	< 2000	COC(=O)Nc1c(N)nc(-c2cc(-c3ncco3)n(Cc3ccccc3F)n2)nc1N [Compound I-99]	–	20 to 40	80 to 100	0 to 10
B (B = 2 to <5 fold increase)	20 to 40	40 to 60	C (C = 5 to <10 fold increase)	–	< 2000	COC(=O)N(C)c1c(N)nc(-c2cc(-c3ncco3)n(Cc3ccccc3F)n2)nc1N [Compound I-100]	–	60 to 80	100 to 120	20 to 40
B (B = 2 to <5 fold increase)	40 to 60	20 to 40	C (C = 5 to <10 fold increase)	–	< 2000	Nc1nc(-c2cc(-c3ccon3)n(Cc3ccccc3F)n2)ncc1-c1ccncc1 [Compound I-102]	–	60 to 80	80 to 100	20 to 40
C (C = 5 to <10 fold increase)	80 to 100	100 to 120	C (C = 5 to <10 fold increase)	–	< 2000	COC(=O)N(C)c1cnc(-c2cc(-c3ccon3)n(Cc3ccccc3F)n2)nc1N [Compound I-105]	–	80 to 100	100 to 120	60 to 80
D (D = 10 to <30 fold increase)	–	–	D (D = 10 to <30 fold increase)	–	< 2000	CC(C)(C)OC(=O)Nc1cnc(-c2cc(-c3ccon3)n(Cc3ccccc3F)n2)nc1N [Compound I-106]	–	60 to 80	100 to 120	20 to 40
B (B = 2 to <5 fold increase)	60 to 80	60 to 80	C (C = 5 to <10 fold increase)	–	< 2000	N#Cc1cnc(-c2cc(-c3ccon3)n(Cc3ccccc3F)n2)nc1O [Compound I-110]	–	60 to 80	80 to 100	40 to 60
C (C = 5 to <10 fold increase)	100 to 120	80 to 100	D (D = 10 to <30 fold increase)	–	< 2000	CC(=O)Nc1cnc(-c2cc(-c3ccon3)n(Cc3ccccc3F)n2)nc1N [Compound I-112, N-(4-amino-2-(1-(2-fluorobenzyl)-5-(isoxazol-3-yl)-1H-pyrazol-3-yl)pyrimidin-5-yl)acetamide]	–	> 120	100 to 120	80 to 100
C (C = 5 to <10 fold increase)	80 to 100	60 to 80	D (D = 10 to <30 fold increase)	–	2000 to 4000	CN(C(=O)OC(C)(C)C)c1cnc(-c2cc(-c3ccon3)n(Cc3ccccc3F)n2)nc1N [Compound I-115]	–	40 to 60	80 to 100	20 to 40
